These are literature values, as cited in US10668130B2, “Formulation for targeting cancer in humans and canines using chlorotoxin” (priority 2017, dated 2020).

Series [1] concerns outwardly rectifying Cl— channels. The settings on record: planar lipid bilayers.
Series [2] has as its system volume-regulated Cl— channels. The note with it: sub-micromolar concentrations.
The subject of series [3] is Ca2+-activated Cl— channels. The note with it: sub-micromolar concentrations.
In a further series the target is CFTR Cl— channels (Homo sapiens, UniProt P13569). The note with it: sub-micromolar concentrations.
CFTR Cl— channels, sequence (P13569 whole entry): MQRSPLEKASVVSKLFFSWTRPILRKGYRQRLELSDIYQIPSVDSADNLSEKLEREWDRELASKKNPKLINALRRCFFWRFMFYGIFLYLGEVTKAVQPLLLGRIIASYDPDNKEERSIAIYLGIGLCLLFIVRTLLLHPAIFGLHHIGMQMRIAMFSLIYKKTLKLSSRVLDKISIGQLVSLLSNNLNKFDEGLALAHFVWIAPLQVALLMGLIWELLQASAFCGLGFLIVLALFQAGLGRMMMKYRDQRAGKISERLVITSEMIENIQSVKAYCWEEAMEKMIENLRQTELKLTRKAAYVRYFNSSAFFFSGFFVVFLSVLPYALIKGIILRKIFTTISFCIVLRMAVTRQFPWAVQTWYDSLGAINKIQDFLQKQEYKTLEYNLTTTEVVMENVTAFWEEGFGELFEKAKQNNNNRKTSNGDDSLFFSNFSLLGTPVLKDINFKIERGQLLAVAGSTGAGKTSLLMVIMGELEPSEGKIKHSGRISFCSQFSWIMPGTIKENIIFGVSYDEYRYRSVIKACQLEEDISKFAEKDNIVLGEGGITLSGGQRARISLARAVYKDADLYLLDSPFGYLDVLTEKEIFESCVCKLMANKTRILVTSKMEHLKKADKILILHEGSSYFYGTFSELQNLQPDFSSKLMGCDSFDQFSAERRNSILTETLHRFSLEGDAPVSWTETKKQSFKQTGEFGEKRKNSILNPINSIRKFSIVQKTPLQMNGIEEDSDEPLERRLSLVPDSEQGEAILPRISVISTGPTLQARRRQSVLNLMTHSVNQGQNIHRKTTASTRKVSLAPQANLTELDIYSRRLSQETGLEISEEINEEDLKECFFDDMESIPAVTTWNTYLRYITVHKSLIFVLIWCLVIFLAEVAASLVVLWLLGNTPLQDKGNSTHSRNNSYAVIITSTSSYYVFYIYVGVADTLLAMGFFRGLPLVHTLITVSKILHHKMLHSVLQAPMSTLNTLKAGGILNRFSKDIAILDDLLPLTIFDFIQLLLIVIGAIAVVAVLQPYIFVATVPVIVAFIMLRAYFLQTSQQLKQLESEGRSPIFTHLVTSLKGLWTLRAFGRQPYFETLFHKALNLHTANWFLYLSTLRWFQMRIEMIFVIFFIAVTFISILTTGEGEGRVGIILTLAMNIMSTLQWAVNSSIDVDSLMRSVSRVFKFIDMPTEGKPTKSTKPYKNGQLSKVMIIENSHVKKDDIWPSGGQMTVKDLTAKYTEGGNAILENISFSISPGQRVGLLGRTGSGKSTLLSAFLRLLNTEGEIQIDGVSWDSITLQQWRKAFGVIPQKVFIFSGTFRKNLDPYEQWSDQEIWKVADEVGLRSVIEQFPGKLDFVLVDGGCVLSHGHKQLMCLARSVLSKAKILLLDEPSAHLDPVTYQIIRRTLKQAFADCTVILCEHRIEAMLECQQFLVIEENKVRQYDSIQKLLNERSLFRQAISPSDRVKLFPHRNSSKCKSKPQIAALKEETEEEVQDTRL

Regarding chlorotoxin, the “effect on outwardly rectifying Cl— channels” value in series [1] is given as “inhibited”. Further, the “effect on volume-regulated Cl— channels” value in series [2] is listed as “without effect”. Besides, in series [3], the “effect on Ca2+-activated Cl— channels” value is on record as “without effect”. Moreover, the “effect on CFTR Cl— channels” value on CFTR Cl— channels is given as “without effect”.
